The target of data set [1] is T1, human C5a receptor (CD88) (Homo sapiens, UniProt P21730).
T1 construct: expressed in transfected cells; host or cells: rat basophilic leukemia (RBL) cells, stably transfected
T1 sequence (P21730 1-350): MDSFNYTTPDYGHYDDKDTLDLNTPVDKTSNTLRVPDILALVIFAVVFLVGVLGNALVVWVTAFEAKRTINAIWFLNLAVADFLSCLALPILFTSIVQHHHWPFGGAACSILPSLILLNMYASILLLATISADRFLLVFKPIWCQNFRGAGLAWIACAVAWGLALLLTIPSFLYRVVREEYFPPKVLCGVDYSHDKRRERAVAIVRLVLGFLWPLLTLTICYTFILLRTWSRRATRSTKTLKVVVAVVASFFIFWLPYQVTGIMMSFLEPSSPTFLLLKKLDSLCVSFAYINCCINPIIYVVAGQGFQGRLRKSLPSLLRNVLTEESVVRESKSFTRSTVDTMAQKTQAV
Put plainly: Agonism in enzyme release assay without C5a stimulus (Example 32). Type of data set: cell-based. To be noted: concentration applied 7.1 μM. As to the method: The assay has been described by Köhl (Köhl 1997 The Anaphylatoxins. In: Dodds, A. W., Sim, R. B. (Eds.), Complement: A Practical Approach. Oxford: 135). Basophile leukemia cells from rats (RBL), which express the human C5a receptor (CD88), are cultivated in DMEM with 10% fetal calf serum, 100 U/ml penicillin, 100 μg/ml streptomycin and 2 mM glutamin (all constituents are from Biochrome, Berlin) at 37° C. and with 10% CO2 until a confluent layer is obtained. All following details refer to a tissue culture flask with 75 cm^2 surface. The used up medium is removed. The cells are washed with 10 ml PBS (Dulbecco's PBS, Biochrome) and then covered with 3 ml cell dissociation solution (CDS, Sigma). The cells are incubated for 1 minute at room temperature. Then the CDS is removed and the cells are incubated for further 10-15 minutes at 37° C. to detach the cells completely from the flask. 20 μl solution of the compound to be testet are used in the assay. The assay solution must not contain more than 2.8% DMSO. The dilution series are prepared in ⅓ or ½ steps. To the 20 μl of the compound solutions 75 μl RBL cells are added which are prepared as follows: After the detachment of the cells from the flask surface they are taken up with 10 ml HAG-CM (20 mM HEPES; 125 mM NaCl, 5 mM KCl, 1 mM CaCl2, 1 mM MgCl2, 0.5 mM glucose, 0.25% BSA. HEPES preparation: 2.3 g/l HEPES salt+2.66 g/l HEPES acid) thermostated at 37° C. The cells are counted and centrifuged (200 g, 10 min). The cell pellet is taken up with pre-heated HAG-CM, and the cell density is adjusted to 2×10^6 Zellen/ml. The cells are incubated for 5 minutes at 37° C. 2.7 μl of a cytochalasin B solution (1000 μg/ml in DMSO, Sigma) are added per ml cell suspension. The Zellen are incubated for another 3 min at 37° C. Then, 75 μl of the cell suspension are added to the 20 μl solution containing the compounds to be tested. Thus a volume of […] per well is obtained. The cells are again incubated for 10 minutes at 37° C. Then 10 μl hrC5a (10.5 nM in HAG-CM, Sigma) are added per well, which is followed by 5 minutes incubation at 37° C. After this the plates are put on ice and centrifuged for 3 minutes at 1200×g and 4° C. 75 μl of the supernatant are added to 100 μl substrate solution (2.7 mg/ml p-nitrophenyl-N-acetyl-b-D-glucosaminide (Sigma) in 42.5 mM sodium acetate, pH 4.5). The plate is incubated for 1 hour at 37° C. Per well 75 μl 0.4 M glycine (pH 10.4) are added. After this the plate can be measured at a wave length of 405 nm. The IC50 value is determined by solving the four parameter equation y=((A−D)/(1+(x/C)^B))+D.
The only difference is the fact that 30 μl of the substance to be tested are mixed with 75 μl of the cell suspension described in example 28. The cells are not pre-incubated and no C5a is added to stimulate enzyme release.

Data set [2] concerns the target T1, human C5a receptor (CD88). Description: C5a induced enzyme (glucosaminidase) release assay in RBL cells expressing the human C5a receptor (Example 28). It is filed as cell-based. To be noted: inhibition of C5a induced enzyme release, RBL cells with human C5aR; read-out: Activity-range (antagonistic activity, IC50 enzyme release). The method in brief: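 Rat basophilic leukemia (RBL) cells expressing human C5a receptor, at 2×10^6 cells/ml, primed with cytochalasin B, then incubated with test compound 10 min at 37 °C.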

The nature of data set [3]: Solubility in aqueous HEPES buffer by HPLC (Example 33). Type of data set: physicochemical. To be noted: kinetic from dmso stock. As to the method: To determine the solubility the compound to be measured is dissolved (e.g, […] of a 5 mM solution in DMSO) in organic solvent (e.g. 198 μl DMSO) as well as in aqueous buffer solution (e.g. 198 μl HEPES buffer). Both solutions are analyzed via analytical HPLC and the areas under the peaks are compared. The value for the organic solution is taken as 100%.

pIC50: −log10 of the molar value. ≈ marks a conversion by molar mass, not a printed value.

As usually defined, the pIC50 is −log10 of the IC50, conventionally taken in molar units. In general, solubility refers to the concentration that dissolves in the medium under given conditions. Higher therefore signals a readily soluble substance.

Take `CCc1c(N)cc(Cl)c(CC)c1NC(=O)N(Cc1ccc(Cl)cc1)c1ccc(CC(F)(F)F)cc1` [compound 103, 3-(3-amino-5-chloro-2,6-diethyl-phenyl)-1-(4-chloro-benzyl)-1-[4-(2,2,2-trifluoro-ethyl)-phenyl]-urea]: the “Agonism (% of the maximum enzyme release induced by C5a)” value in data set [1] is recorded as 0.00%. Besides, the pIC50 in data set [2] was 6.70 to 7.22. Moreover, in data set [3], the solubility is 7 µM (≈ 3.67 µg/mL).

As for `CCc1ccc(N(Cc2ccc(C)nc2)C(=O)Nc2c(CC)c(N)cc(Cl)c2CC)cc1` [compound 106, 3-(3-amino-5-chloro-2,6-diethyl-phenyl)-1-(4-ethyl-phenyl)-1-(6-methyl-pyridin-3-ylmethyl)-urea], the “Agonism (% of the maximum enzyme release induced by C5a)” value in data set [1] is 0.00%. Moreover, the pIC50 in data set [2] is 6.70 to 7.22. For the same molecule, the solubility in data set [3] worked out at 83 µM (≈ 37.4 µg/mL).

Regarding `CCc1ccc(N(C(=O)Nc2c(CC)c(N)cc(Cl)c2CC)C(C)c2ccc3c(c2)ncn3C)cc1` (stereo not drawn) [compound 122, 3-(3-amino-5-chloro-2,6-diethyl-phenyl)-1-(4-ethyl-phenyl)-1-[1-(1-methyl-1H-benzoimidazol-5-yl)-ethyl]-urea], the “Agonism (% of the maximum enzyme release induced by C5a)” value in data set [1] was 0.00%. In data set [2], the pIC50 was 6.70 to 7.22. Also, the solubility in data set [3] was 29 µM (≈ 14.6 µg/mL).

Source of the values: patent US8071810B2, “C5a receptor antagonists” (Jerini AG, priority 2005, dated 2011).
